This note sets out measurements from patent US20210179578A1, “OX1 ANTAGONISTS” (Heptares Therapeutics Limited, priority 2017, published 2021).

The target of assay [1] is T1, human OX2 receptor (Homo sapiens, UniProt O43614).
T1 sequence (O43614 1-444): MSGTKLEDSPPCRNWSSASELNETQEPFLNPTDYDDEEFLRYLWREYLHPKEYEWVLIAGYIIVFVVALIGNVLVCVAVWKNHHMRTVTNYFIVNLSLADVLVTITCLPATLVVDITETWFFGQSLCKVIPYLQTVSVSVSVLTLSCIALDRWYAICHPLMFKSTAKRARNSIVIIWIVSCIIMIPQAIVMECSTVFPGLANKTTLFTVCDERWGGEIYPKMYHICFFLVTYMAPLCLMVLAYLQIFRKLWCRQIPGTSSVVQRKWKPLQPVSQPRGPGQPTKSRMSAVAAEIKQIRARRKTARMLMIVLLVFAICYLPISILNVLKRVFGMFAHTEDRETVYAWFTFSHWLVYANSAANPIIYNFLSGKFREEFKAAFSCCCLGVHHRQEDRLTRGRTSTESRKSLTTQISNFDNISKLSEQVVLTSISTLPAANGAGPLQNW
The experiment in a line: [3H]-radioligand binding assay, OX2. More on the design: made in house; host or cells: SF21 insect cells (baculovirus; P0 virus made in SF9). The following applies: [3H]-radioligand binding, human OX2 membranes; read-out: pKi average OX2 (converted). From the text: (§1) Cloning, Baculovirus generation, large-scale infection of SF21 cells and membrane preparation. Human OX1 or OX2 receptor were cloned into Invitrogen's (ThermoFisher Scientific, UK) Bac-to-Bac Baculovirus Expression System. P0 baculovirus was generated by transfecting SF9 cells with bacmid DNA using Cellfectin® II transfection reagent (ThermoFisher Scientific, UK, Catalog number 10362-100). Following P0 generation P1 virus was then generated ready for large scale infection and membrane preparation. SF21 cells were grown in expression medium ESF921 (Expression Systems, USA, catalog number 96-001-01) supplemented with 10% heat-inactivated FBS and 1% Pen/Strep and were infected at a cell density of 2.5×10^6 cells/mL and a multiplicity of infection of 1.0 for both human OX1R and OX2R. Incubation was carried out at over 48 h in a shaking incubator set at 27° C. The cell culture was then centrifuged at 2,500 rcf for 10 min at 4° C. The pellets were resuspended in cold PBS supplemented with Roche's Complete EDTA-free protease inhibitor cocktail tablets (Roche Applied Sciences, catalog number 05056489001), 1 mM PMSF and 1 mM EDTA. The resuspended cell paste was then centrifuged at 3,273 rcf for 12 min at 4° C. The supernatant was discarded and the pellet frozen at −80° C. The cell pellet from a 4 L culture was resuspended in buffer containing 50 mM HEPES pH 7.5, 150 mM NaCl, 8 Roche EDTA-Free protease inhibitor cocktail tablets and 1 mM PMSF. The suspension was left stirring at rt for 1 h and then homogenised for 90 s at 9,500 rpm using a VDI 25 (VWR, USA) homogeniser. The cells were then lysed using a Microfluidiser processor M-110L Pneumatic (Microfluidics, USA) at 60 PSI and membranes collected by ultracentrifugation at 204.7 k×g for 1 h. The supernatant was discarded and the pellet was resuspended and homogenised in 90 s at 9,500 rpm in 50 mL (25 mL for each 2 L culture) of buffer containing 50 mM Hepes pH 7.5, 150 mM NaCl, 3 Roche EDTA-free protease inhibitor cocktail tablets and 1 mM PMSF. The resulting membranes were then stored at −80° C.
(§2) [^3H]-radioligand binding assay. After thawing, membrane homogenates were resuspended in the binding buffer (8.5 mM HEPES, pH 7.4, 1.3 mM CaCl2, 1.2 mM MgSO4, 118 mM NaCl, 4.7 mM KCl, 4 mM NaHCO3, 1.2 mM KH2PO4, 11 mM glucose) to a final assay concentration of 6.4 μg (OX1) or 1.4 μg (OX2) protein per well. Saturation isotherms were determined by the addition of various concentrations (0-30 nM) of [^3H]-4-(2,6-difluoro-4-methoxybenzyl)-2-(5,6-dimethoxypyridin-3-yl)-2H-1,2,4-benzothiadiazin-3(4H)-one 1,1-dioxide (Christopher et al, MedChemComm., 2015, 6, 947-955) in a total reaction volume of 250 μL for 90 min at rt. At the end of the incubation, membranes were filtered onto a 96-well GF/B filter pre-incubated with 0.5% polyethylenimine, with a Tomtec cell harvester and washed 5 times with 0.5 mL distilled water. Non-specific binding (NSB) was measured in the presence of 3.33 μM [4-(5-chloro-1,3-benzoxazol-2-yl)-7-methyl-1,4-diazepan-1-yl][5-methyl-2-(2H-1,2,3-triazol-2-yl)phenyl]methanone (Wertz et al, Angew. Chem. Int. Ed., 2011, 50, 11511-11515). Radioactivity on the filter was counted (1 min) on a Microbeta radiometric plate counter (Perkin Elmer) after addition of 50 μL of scintillation fluid (LabLogic: Part #SG-BXX-14). […] IC50 values were derived from the inhibition curve and the equilibrium dissociation constant (Ki) values were calculated using the Cheng-Prusoff equation.

Assay [2] addresses T2, human OX1 receptor (Homo sapiens, UniProt O43613).
T2 sequence (O43613 1-425): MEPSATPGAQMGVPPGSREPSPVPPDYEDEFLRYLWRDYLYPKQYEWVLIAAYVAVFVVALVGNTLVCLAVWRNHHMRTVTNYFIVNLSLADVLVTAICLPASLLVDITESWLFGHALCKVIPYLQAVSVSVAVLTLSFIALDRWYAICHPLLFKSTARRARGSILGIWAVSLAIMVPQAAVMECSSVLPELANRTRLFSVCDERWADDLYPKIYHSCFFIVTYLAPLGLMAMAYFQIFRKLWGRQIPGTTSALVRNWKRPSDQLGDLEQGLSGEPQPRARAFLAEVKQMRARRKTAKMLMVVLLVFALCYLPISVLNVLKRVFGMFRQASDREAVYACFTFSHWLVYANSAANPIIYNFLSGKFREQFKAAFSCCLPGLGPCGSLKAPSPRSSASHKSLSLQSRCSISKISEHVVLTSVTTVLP
The experiment in a line: [3H]-radioligand binding assay, OX1. As to conditions: [3H]-radioligand binding, human OX1 membranes; read-out: pKi average OX1 (converted). Also on record: made in house; host or cells: SF21 insect cells (baculovirus; P0 virus made in SF9).
Text: as §1, §2

Each structure is given as a SMILES string. Bounds are passed on as bounds.

As for `Cc1ncc(C2CCc3c(F)cccc3N(Cc3c(F)cc(Br)cc3F)C2=O)cc1C(C)(F)F` (single isomer, unassigned) [Example 35, 1-(4-bromo-2,6-difluorobenzyl)-3-[5-(1,1-difluoroethyl)-6-methylpyridin-3-yl]-6-fluoro-1,3,4,5-tetrahydro-2H-1-benzazepin-2-one], the Ki in assay [1] is greater than 126 nM; in assay [2], 2 nM.

Regarding `Cc1ncc(C2CCc3c(F)cccc3N(Cc3c(F)cc(Br)cc3F)C2=O)cc1C(C)(F)F` (single isomer, unassigned) [Example 36, 1-(4-bromo-2,6-difluorobenzyl)-3-[5-(1,1-difluoroethyl)-6-methylpyridin-3-yl]-6-fluoro-1,3,4,5-tetrahydro-2H-1-benzazepin-2-one], the Ki in assay [1] was 200 nM; in assay [2], 0.631 nM.

In the case of `Cc1ncc(C2CCc3c(F)cccc3N(Cc3c(F)cc(Br)cc3F)C2=O)cc1S(C)(=O)=O` (single isomer, unassigned) [Example 38, 1-(4-bromo-2,6-difluorobenzyl)-6-fluoro-3-[6-methyl-5-(methylsulfonyl)pyridin-3-yl]-1,3,4,5-tetrahydro-2H-1-benzazepin-2-one], the values for the Ki in assay [1] and in assay [2] were greater than 316 nM and 10 nM, respectively.

On to `Cc1ncc(C2CCc3c(F)cccc3N(Cc3c(F)cc(Br)cc3F)C2=O)cc1S(C)(=O)=O` (single isomer, unassigned) [Example 39, 1-(4-bromo-2,6-difluorobenzyl)-6-fluoro-3-[6-methyl-5-(methylsulfonyl)pyridin-3-yl]-1,3,4,5-tetrahydro-2H-1-benzazepin-2-one], for which the Ki was greater than 501 nM in assay [1] and 1.26 nM in assay [2].

Regarding `Cc1ccc(N2CCc3c(F)cccc3N(Cc3c(F)cc(Br)cc3F)C2=O)cc1C(C)(F)F` [Example 1, 1-(4-bromo-2,6-difluorobenzyl)-3-[3-(1,1-difluoroethyl)-4-methylphenyl]-6-fluoro-1,3,4,5-tetrahydro-2H-1,3-benzodiazepin-2-one], the Ki is 200 nM in assay [1] and 2 nM in assay [2].

On to `COc1ncc(N2CCc3c(F)cccc3N(Cc3c(F)cc(Br)cc3F)C2=O)cc1C(C)(F)F` [Example 3, 1-(4-bromo-2,6-difluorobenzyl)-3-[5-(1,1-difluoroethyl)-6-methoxypyridin-3-yl]-6-fluoro-1,3,4,5-tetrahydro-2H-1,3-benzodiazepin-2-one], for which the values for the Ki in assay [1] and in assay [2] were greater than 79.4 nM and 1.26 nM, respectively.

Turning to `COc1ccc(CN2C(=O)N(c3cnc(OC)c(C(C)(F)F)c3)CCc3c(F)cccc32)c(F)c1` [Example 4, 3-[5-(1,1-difluoroethyl)-6-methoxypyridin-3-yl]-6-fluoro-1-(2-fluoro-4-methoxybenzyl)-1,3,4,5-tetrahydro-2H-1,3-benzodiazepin-2-one], the results for the Ki in assay [1] and in assay [2] were 63.1 nM and 0.794 nM, respectively.

Turning to `[2H]C([2H])([2H])Oc1cc(F)c(CN2C(=O)N(c3cnc(OC)c(C(C)(F)F)c3)CCc3c(F)cccc32)c(F)c1` [Example 6, 3-[5-(1,1-difluoroethyl)-6-methoxypyridin-3-yl]-1-{2,6-difluoro-4-[(^2H3)methyloxy]benzyl}-6-fluoro-1,3,4,5-tetrahydro-2H-1,3-benzodiazepin-2-one], the values for the Ki in assay [1] and in assay [2] were 100 nM and 0.398 nM, respectively.

As for `COc1ncc(N2CCc3c(F)cccc3N(Cc3ccc(Br)cc3F)C2=O)cc1C(C)(F)F` [Example 10, 1-(4-bromo-2-fluorobenzyl)-3-[5-(1,1-difluoroethyl)-6-methoxypyridin-3-yl]-6-fluoro-1,3,4,5-tetrahydro-2H-1,3-benzodiazepin-2-one], the Ki in assay [1] was greater than 251 nM; in assay [2] it was 1.26 nM.

Take `COc1ncc(N2CCc3c(F)cccc3N(Cc3c(F)cc(Br)cc3F)C2=O)cc1S(C)(=O)=O` [Example 14, 1-(4-bromo-2,6-difluorobenzyl)-6-fluoro-3-[6-methoxy-5-(methylsulfonyl)pyridin-3-yl]-1,3,4,5-tetrahydro-2H-1,3-benzodiazepin-2-one]: the Ki in assay [1] is greater than 251 nM; in assay [2] it was 3.16 nM.

Consider `COc1cc(F)c(CN2C(=O)N(c3cnc(OC)c(S(C)(=O)=O)c3)CCc3c(F)cccc32)c(F)c1F` [Example 15, 6-fluoro-3-[6-methoxy-5-(methylsulfonyl)pyridin-3-yl]-1-(2,3,6-trifluoro-4-methoxybenzyl)-1,3,4,5-tetrahydro-2H-1,3-benzodiazepin-2-one], for which the Ki in assay [1] was greater than 251 nM; in assay [2] it was 1.26 nM.

Regarding `COc1nc(OC)c(C(C)(F)F)cc1N1CCc2c(F)cccc2N(Cc2c(F)cc(Br)cc2F)C1=O` [Example 23, 1-(4-bromo-2,6-difluorobenzyl)-3-[5-(1,1-difluoroethyl)-2,6-dimethoxypyridin-3-yl]-6-fluoro-1,3,4,5-tetrahydro-2H-1,3-benzodiazepin-2-one], the figures for the Ki in assay [1] and in assay [2] were greater than 126 nM and 1.26 nM, respectively.

On to `COCc1cc(F)c(CN2C(=O)N(c3cc(C(C)(F)F)c(OC)nc3OC)CCc3c(F)cccc32)c(F)c1` [Example 24, 3-[5-(1,1-difluoroethyl)-2,6-dimethoxypyridin-3-yl]-1-[2,6-difluoro-4-(methoxymethyl)benzyl]-6-fluoro-1,3,4,5-tetrahydro-2H-1,3-benzodiazepin-2-one], for which the Ki in assay [1] is greater than 158 nM; in assay [2] it was 1 nM.

`COc1cc(F)c(CN2C(=O)N(c3cc(S(C)(=O)=O)c(OC)nc3OC)CCc3c(F)cccc32)c(F)c1` [Example 25, 1-(2,6-difluoro-4-methoxybenzyl)-3-[2,6-dimethoxy-5-(methylsulfonyl)pyridin-3-yl]-6-fluoro-1,3,4,5-tetrahydro-2H-1,3-benzodiazepin-2-one]: the Ki is greater than 126 nM in assay [1] and 1.58 nM in assay [2].
